In EP4775570A1, “CYP11A1 INHIBITOR, PREPARATION METHOD THEREFOR AND USE THEREOF” (Shenzhen Zhongge Biological Technology Co., Ltd., priority 2023, dated 2025):

target: T1, CYP11A1 (Homo sapiens, UniProt P05108); experiment: NCI-H295R cellular pregnenolone biosynthesis inhibition assay (ELISA method); type: cell-based; settings: NCI-H295R cells, 3 days incubation, pregnenolone in cell supernatant by ELISA; read-out: IC50
T1 construct: host or cells: NCI-H295R
T1 sequence (P05108 40-521): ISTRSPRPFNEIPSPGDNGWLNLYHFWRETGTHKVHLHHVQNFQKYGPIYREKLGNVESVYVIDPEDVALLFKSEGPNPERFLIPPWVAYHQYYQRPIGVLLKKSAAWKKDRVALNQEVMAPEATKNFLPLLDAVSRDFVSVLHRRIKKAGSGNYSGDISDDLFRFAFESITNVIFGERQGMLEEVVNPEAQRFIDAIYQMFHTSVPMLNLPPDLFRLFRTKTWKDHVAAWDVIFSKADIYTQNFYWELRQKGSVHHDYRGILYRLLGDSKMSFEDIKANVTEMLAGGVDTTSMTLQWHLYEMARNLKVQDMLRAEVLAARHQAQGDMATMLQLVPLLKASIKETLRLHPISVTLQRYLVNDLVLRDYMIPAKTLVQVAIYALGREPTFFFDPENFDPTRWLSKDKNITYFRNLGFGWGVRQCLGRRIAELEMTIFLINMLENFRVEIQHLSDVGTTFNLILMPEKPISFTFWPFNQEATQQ
Description: The experiment aims to test the inhibitory effect of the compounds of the present disclosure on cellular pregnenolone biosynthesis, and to assess the inhibitory effect of the compounds on CYP11A1 target based on their IC50 values.
NCI-H295R cells (MINGZHOUBIO, MZ-2138) cultured in NCI-H295R complete medium (MINGZHOUBIO, MCM-0399).
Using culture medium, NCI-H295R cells were seeded into a new 384-well cell culture plate (Greiner, 781091) at a density of 5,000 cells per well, with 45µL of cell suspension per well. The test compounds were prepared by adding 5µL of compound solution at 10× concentration to each well, to a maximum final concentration of 10µM, followed by 3× serial dilution for 10 points, with a final DMSO concentration of 0.1%, centrifuging at 1,000 rpm for 1 minute at room temperature, and then incubating in a 5% CO2 cell incubator at 37°C for 3 days.
Pregnenolone ELISA kit (Abnova, KA1912) was used for detecting the content of pregnenolone in the supernatant of cell culture. Before detection, the reagents were allowed to come back to room temperature for 1 hour. After taking out the 384-well plate, the cellular supernatant was pipetted and subjected to 5× dilution with the Assay Buffer provided in the kit. A working solution of competitive molecule and a washing solution in accordance with the instructions was prepared. 50µL of diluted cellular supernatant were pipetted into the 96-well plate provided in the ELISA kit, added with 100µL of working solution of competitive molecule per well and the plate was incubated at room temperature for 1.5 hours. After discarding the liquid, the plate was washed with 300µL of washing solution per well three times and dried. After adding 150 µL of substrate chromogenic solution per well, the plate was incubated at room temperature for 10-15 minutes. After adding 50 µL of termination solution per well, the plate was incubated at room temperature for 10-15 minutes and read for absorbance at 450nm with Envision HTS Multilabel Reader.
The wells added with 1µM ODM-208 were defined as 100% inhibition (positive control), the wells containing DMSO at a final concentration of 0.1% were defined as 0% inhibition (negative control), and inhibitory ratio = (absorbance of tested sample - average absorbance of negative control)/(average absorbance of positive control - average absorbance of negative control)*100%. The data were subjected to four-parameter fitting using GraphPad Prism to calculate the IC50 values of the compounds.

Structure (SMILES)	IC50 [nM]
COc1cc(CN2Cc3ccccc3C2)ncc1OCC1CCN(S(C)(=O)=O)CC1 [compound 2]	> 300
COc1nc(CN2Cc3ccccc3C2)c(F)cc1CCC1CCN(S(C)(=O)=O)CC1 [compound 89]	100 to 300
Cn1c(CN2Cc3ccccc3C2)c(F)cc(CCN2CCN(C(=O)OC(C)(C)C)CC2)c1=O [compound 129]	< 100
COc1cc(CN2Cc3ccccc3C2)ccc1CCC1CCN(S(=O)(=O)c2ccc(C)cc2)CC1 [compound 75]	< 100
Cn1c(CN2Cc3ccccc3C2)c(F)cc(C=CC2CCN(S(C)(=O)=O)CC2)c1=O [compound 104]	< 100
Cn1c(CN2Cc3ccccc3C2)c(F)cc(-c2cnc3c(c2)CCN(S(C)(=O)=O)C3)c1=O [compound 126]	< 100
CS(=O)(=O)N1CCC(COc2ccc(CN3Cc4ccccc4C3)cc2-c2ncco2)CC1 [compound 37]	100 to 300
Cn1c(CN2Cc3ccccc3C2)c(F)cc(C(F)=CC2CCN(S(C)(=O)=O)CC2)c1=O [compound 123]	< 100
COc1cc(CN2Cc3ccccc3C2)c(F)cc1OCC1CCN(S(C)(=O)=O)CC1 [compound 22]	< 100
CS(=O)(=O)N1CCC(C=Cc2cc(F)c(CN3Cc4ccccc4C3)cc2C#N)CC1 [compound 61]	100 to 300
Cn1c(CN2Cc3ccccc3C2)c(F)cc(-c2ccc3c(n2)CCN(S(C)(=O)=O)C3)c1=O [compound 127]	> 300
COc1cc(OCC2CCN(S(C)(=O)=O)CC2)c(F)cc1CN1Cc2ccccc2C1 [compound 23]	> 300
CS(=O)(=O)N1CCC(COc2ccc(CN3Cc4ccccc4C3)cc2-c2ccco2)CC1 [compound 36]	> 300
Cc1cc(CN2Cc3ccccc3C2)cc(F)c1OCC1CCN(S(C)(=O)=O)CC1 [compound 35]	100 to 300
CS(=O)(=O)N1CCC(COc2cc(F)c(CN3Cc4ccccc4C3)cc2F)CC1 [compound 32]	< 100
Cn1c(CN2Cc3ccccc3C2)c(F)cc(CCN2CCN(S(C)(=O)=O)CC2)c1=O [compound 118]	100 to 300
COc1cc(CN2Cc3ccccc3C2)ccc1/C=C/C1CCN(S(C)(=O)=O)CC1 [compound 44]	< 100
Fc1cc(OCC2CCNCC2)c(Br)cc1CN1Cc2ccccc2C1 [compound 56]	> 300
Cn1c(CN2Cc3ccccc3C2)c(F)cc(C=CC2CCN(C(=O)OC(C)(C)C)CC2)c1=O [compound 103]	100 to 300
COc1cc(CN2Cc3ccccc3C2)ccc1CCC1CCN(C(=O)C(C)(C)C)CC1 [compound 81]	< 100

Structure (SMILES)	IC50 [nM]
Cn1c(CN2Cc3ccccc3C2)c(F)cc(C(=O)CC2CCN(C(=O)OC(C)(C)C)CC2)c1=O [compound 125]	< 100
CS(=O)(=O)N1CCC(C=Cc2ccc(CN3Cc4ccccc4C3)cc2C#N)CC1 [compound 60]	< 100
CCS(=O)(=O)N1CCC(C=Cc2cc(F)c(CN3Cc4ccccc4C3)n(C)c2=O)CC1 [compound 110]	< 100
CC1CC(CCc2cc(F)c(CN3Cc4ccccc4C3)n(C)c2=O)CCN1C(=O)OC(C)(C)C (stereo not drawn) [compound 117]	< 100
COc1cc(CN2Cc3ccccc3C2)ccc1CCC1CCN(C(C)=O)CC1 [compound 70]	< 100
CC(c1c(F)cc(CCC2CCN(S(C)(=O)=O)CC2)c(=O)n1C)N1Cc2ccccc2C1 (stereo not drawn) [compound 102]	< 100
COc1nc(CN2Cc3ccccc3C2)ccc1OCC1CCN(S(C)(=O)=O)CC1 [compound 4]	100 to 300
CS(=O)(=O)N1CCC(COc2cnc(CN3Cc4ccccc4C3)cn2)CC1 [compound 9]	> 300
COc1cc(CN2Cc3ccccc3C2)ccc1CCN1CCN(S(C)(=O)=O)CC1 [compound 48]	100 to 300
[2H]C([2H])(c1c(F)cc(CCC2CCN(C(=O)OC(C)(C)C)CC2)c(=O)n1C)N1Cc2ccccc2C1 [compound 121]	< 100
CSc1cc(CN2Cc3ccccc3C2)c(F)cc1OCC1CCN(S(C)(=O)=O)CC1 [compound 33]	< 100
COc1cc(CN2Cc3cccnc3C2)ccc1CCC1CCN(S(C)(=O)=O)CC1 [compound 62]	100 to 300
COc1cc(CN2Cc3ccccc3C2)ccc1CCC1(O)CCN(S(C)(=O)=O)CC1 [compound 92]	100 to 300
CC(C)(C)OC(=O)N1CCC2(CCN(c3ccc(CN4Cc5ccccc5C4)cc3F)CC2)C1 [compound 51]	> 300
CCC(C)Oc1cc(CN2Cc3ccccc3C2)c(F)cc1OCC1CCN(S(C)(=O)=O)CC1 (stereo not drawn) [compound 12]	< 100
COc1cc(CN2Cc3ccccc3C2)ccc1C#CC1(O)CCN(S(C)(=O)=O)CC1 [compound 93]	100 to 300
Cn1c(CN2Cc3cccc(F)c3C2)c(F)cc(CCC2CCN(S(C)(=O)=O)CC2)c1=O [compound 100]	> 300
Cn1c(CN2Cc3ccccc3C2)c(F)cc(C=CC2CCN(S(=O)(=O)C3CC3)CC2)c1=O [compound 111]	< 100
CS(=O)(=O)N1CCC2(CCN(c3ccc(CN4Cc5ccccc5C4)cc3F)CC2)C1 [compound 58]	> 300

Continued, values first:

IC50 [nM]	Structure (SMILES)
> 300	CS(=O)(=O)N1CCC(COc2ccc(CN3Cc4ccccc4C3)nc2)CC1 [compound 8]
100 to 300	CS(=O)(=O)N1CCC(CCc2cc(F)c(CN3Cc4ccccc4C3)[nH]c2=O)CC1 [compound 94]
< 100	Cc1cc(CN2Cc3ccccc3C2)ccc1OCC1CCN(S(C)(=O)=O)CC1 [compound 11]
< 100	CS(=O)(=O)N1CCC(COc2ccc(CN3Cc4ccccc4C3)cc2Br)CC1 [compound 17]
> 300	CS(=O)(=O)N1CCC(CCc2sc(CN3Cc4ccccc4C3)cc2C#N)CC1 [compound 96]
100 to 300	CC(C)Oc1cc(CN2Cc3ccccc3C2)ccc1CCC1CCN(S(C)(=O)=O)CC1 [compound 76]
< 100	CC(C)c1cc(CN2Cc3ccccc3C2)ccc1CCC1CCN(S(C)(=O)=O)CC1 [compound 74]
100 to 300	COc1nc(CN2Cc3ccccc3C2)ccc1CCC1CCN(S(C)(=O)=O)CC1 [compound 65]
100 to 300	CS(=O)(=O)N1CCC(CCc2ncc(CN3Cc4ccccc4C3)s2)CC1 [compound 86]
< 100	COc1cc(CN2Cc3ccccc3C2)ccc1CCC1CCN(S(=O)(=O)C2CC2)CC1 [compound 69]
> 300	CS(=O)(=O)N1CCC(CCn2ccc(CN3Cc4ccccc4C3)cc2=O)CC1 [compound 5]
< 100	COc1c(CCC2CCN(S(C)(=O)=O)CC2)ccc(CN2Cc3ccccc3C2)c1F [compound 85]
< 100	CS(=O)(=O)N1CCC(COc2ccc(CN3Cc4ccccc4C3)cc2O)CC1 [compound 18]
< 100	CS(=O)(=O)N1CCC(COc2ccc(CN3Cc4ccccc4C3)cc2F)CC1 [compound 15]
< 100	CS(=O)(=O)N1CCC(CCc2ccc(CN3Cc4ccccc4C3)cc2F)CC1 [compound 40]
> 300	CS(=O)(=O)N1CCC(CCOc2cc(CN3Cc4ccccc4C3)ccn2)CC1 [compound 6]
100 to 300	C=C(C)c1cc(CN2Cc3ccccc3C2)ccc1OCC1CCN(S(C)(=O)=O)CC1 [compound 27]
> 300	CS(=O)(=O)N1CCC(CCc2cnc(CN3Cc4ccccc4C3)s2)CC1 [compound 87]
< 100	CS(=O)(=O)N1CCC(COc2ccc(CN3Cc4ccccc4C3)cc2)CC1 [compound 10]
< 100	C=CCOc1cc(CN2Cc3ccccc3C2)ccc1OCC1CCN(S(C)(=O)=O)CC1 [compound 29]
> 300	CS(=O)(=O)N1CCC(COc2ccc(CN3Cc4ccccc4C3)cn2)CC1 [compound 7]
